In patent publication US20190119284A1, “ErbB Inhibitors and Uses Thereof” (The Regents of the University of California, priority 2016, published 2019):

How the values were obtained:
P70S6K1 = P70S6K1 (Homo sapiens, UniProt P23443); assay: Nanosyn in vitro kinase profiling: P70S6K1; format: biochemical
Experimental: (§1) This was confirmed by in vitro profiling against a panel of kinases, with compound 2 only showing potent inhibition of EGFR and Ab1 (Table 2).
(§2) In vitro Kinome Screen. In vitro profiling of compound 2 at 100 nM was conducted by Nanosyn.

PRKD2 = target: T1, PRKD2 (Homo sapiens, UniProt Q9BZL6); assay: Nanosyn in vitro kinase profiling: PRKD2; format: biochemical; conditions: for inhibition at 1 µM: compound at 1 μM
T1 sequence (Q9BZL6 1-878): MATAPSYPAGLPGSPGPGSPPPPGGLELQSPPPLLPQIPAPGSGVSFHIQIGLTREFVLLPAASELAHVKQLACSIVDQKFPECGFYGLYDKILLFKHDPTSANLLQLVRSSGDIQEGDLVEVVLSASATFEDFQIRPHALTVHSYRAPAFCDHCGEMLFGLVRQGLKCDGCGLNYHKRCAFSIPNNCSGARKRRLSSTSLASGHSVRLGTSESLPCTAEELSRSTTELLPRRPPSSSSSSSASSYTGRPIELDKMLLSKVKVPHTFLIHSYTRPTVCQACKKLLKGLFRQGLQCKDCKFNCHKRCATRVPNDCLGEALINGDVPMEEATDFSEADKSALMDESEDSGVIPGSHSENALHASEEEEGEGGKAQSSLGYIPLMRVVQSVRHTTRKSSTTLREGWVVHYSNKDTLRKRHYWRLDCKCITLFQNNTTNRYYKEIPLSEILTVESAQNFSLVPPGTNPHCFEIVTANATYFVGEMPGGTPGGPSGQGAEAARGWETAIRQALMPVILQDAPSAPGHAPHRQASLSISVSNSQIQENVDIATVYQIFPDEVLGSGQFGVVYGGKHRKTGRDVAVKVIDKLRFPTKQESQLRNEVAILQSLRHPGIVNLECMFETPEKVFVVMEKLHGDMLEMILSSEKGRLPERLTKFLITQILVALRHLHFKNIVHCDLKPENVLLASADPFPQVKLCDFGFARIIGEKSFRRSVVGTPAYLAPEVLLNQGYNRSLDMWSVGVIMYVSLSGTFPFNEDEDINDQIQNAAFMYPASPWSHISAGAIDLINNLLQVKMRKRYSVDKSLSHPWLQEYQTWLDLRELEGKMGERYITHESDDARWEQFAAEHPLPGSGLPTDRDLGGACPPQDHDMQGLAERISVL
Experimental: as §1, §2

PDGFR-ALPHA = PDGFR-ALPHA (Homo sapiens, UniProt P16234); assay: Nanosyn in vitro kinase profiling: PDGFR-ALPHA; format: biochemical; conditions: for inhibition at 1 µM: compound at 1 μM
Sequence of PDGFR-ALPHA (P16234 24-1089, species assumed): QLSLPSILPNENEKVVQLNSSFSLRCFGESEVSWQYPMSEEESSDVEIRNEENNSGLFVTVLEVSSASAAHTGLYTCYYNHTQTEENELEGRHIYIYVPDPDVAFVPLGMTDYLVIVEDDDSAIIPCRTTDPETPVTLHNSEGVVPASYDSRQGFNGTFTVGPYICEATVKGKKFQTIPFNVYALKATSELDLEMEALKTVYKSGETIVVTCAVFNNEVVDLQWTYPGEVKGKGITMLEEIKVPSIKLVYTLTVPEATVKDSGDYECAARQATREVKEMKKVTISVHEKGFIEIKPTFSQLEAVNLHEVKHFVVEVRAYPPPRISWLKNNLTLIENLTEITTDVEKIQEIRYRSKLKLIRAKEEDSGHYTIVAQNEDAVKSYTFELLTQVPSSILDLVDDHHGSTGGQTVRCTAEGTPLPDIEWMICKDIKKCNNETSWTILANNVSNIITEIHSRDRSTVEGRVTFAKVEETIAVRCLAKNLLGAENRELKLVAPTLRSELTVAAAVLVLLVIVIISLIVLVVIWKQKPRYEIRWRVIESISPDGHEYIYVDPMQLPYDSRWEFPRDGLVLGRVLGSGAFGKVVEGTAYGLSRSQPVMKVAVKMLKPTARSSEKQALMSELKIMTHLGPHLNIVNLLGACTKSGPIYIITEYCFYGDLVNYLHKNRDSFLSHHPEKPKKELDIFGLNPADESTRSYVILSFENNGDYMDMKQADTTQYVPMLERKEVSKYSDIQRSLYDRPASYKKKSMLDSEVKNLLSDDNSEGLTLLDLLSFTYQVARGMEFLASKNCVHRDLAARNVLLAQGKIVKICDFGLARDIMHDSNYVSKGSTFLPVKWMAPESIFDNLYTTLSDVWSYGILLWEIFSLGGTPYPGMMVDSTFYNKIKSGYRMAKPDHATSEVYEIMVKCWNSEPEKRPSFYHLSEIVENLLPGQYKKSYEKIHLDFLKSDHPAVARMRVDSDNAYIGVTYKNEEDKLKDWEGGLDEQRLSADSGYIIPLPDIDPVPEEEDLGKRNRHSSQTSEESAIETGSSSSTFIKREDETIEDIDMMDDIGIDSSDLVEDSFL
Experimental: as §1, §2

JNK2 = JNK2 (Homo sapiens, UniProt P45984); assay: Nanosyn in vitro kinase profiling: JNK2; format: biochemical; conditions: for inhibition at 1 µM: compound at 1 μM
Sequence of JNK2 (P45984 whole entry, species assumed): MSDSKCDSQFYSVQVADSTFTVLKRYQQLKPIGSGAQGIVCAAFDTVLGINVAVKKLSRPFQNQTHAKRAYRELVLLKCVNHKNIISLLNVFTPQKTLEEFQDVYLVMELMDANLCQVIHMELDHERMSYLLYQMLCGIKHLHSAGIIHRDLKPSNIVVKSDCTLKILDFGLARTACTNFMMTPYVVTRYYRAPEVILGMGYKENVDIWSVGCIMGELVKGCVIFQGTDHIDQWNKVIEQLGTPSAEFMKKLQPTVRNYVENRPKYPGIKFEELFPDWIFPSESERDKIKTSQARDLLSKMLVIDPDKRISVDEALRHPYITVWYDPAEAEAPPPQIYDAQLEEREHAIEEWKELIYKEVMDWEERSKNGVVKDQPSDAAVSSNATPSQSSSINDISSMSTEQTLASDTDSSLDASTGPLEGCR
Experimental: as §1, §2

MAP4K4 = MAP4K4 (Homo sapiens, UniProt O95819); assay: Nanosyn in vitro kinase profiling: MAP4K4; format: biochemical; conditions: for inhibition at 1 µM: compound at 1 μM
Sequence of MAP4K4 (O95819 whole entry): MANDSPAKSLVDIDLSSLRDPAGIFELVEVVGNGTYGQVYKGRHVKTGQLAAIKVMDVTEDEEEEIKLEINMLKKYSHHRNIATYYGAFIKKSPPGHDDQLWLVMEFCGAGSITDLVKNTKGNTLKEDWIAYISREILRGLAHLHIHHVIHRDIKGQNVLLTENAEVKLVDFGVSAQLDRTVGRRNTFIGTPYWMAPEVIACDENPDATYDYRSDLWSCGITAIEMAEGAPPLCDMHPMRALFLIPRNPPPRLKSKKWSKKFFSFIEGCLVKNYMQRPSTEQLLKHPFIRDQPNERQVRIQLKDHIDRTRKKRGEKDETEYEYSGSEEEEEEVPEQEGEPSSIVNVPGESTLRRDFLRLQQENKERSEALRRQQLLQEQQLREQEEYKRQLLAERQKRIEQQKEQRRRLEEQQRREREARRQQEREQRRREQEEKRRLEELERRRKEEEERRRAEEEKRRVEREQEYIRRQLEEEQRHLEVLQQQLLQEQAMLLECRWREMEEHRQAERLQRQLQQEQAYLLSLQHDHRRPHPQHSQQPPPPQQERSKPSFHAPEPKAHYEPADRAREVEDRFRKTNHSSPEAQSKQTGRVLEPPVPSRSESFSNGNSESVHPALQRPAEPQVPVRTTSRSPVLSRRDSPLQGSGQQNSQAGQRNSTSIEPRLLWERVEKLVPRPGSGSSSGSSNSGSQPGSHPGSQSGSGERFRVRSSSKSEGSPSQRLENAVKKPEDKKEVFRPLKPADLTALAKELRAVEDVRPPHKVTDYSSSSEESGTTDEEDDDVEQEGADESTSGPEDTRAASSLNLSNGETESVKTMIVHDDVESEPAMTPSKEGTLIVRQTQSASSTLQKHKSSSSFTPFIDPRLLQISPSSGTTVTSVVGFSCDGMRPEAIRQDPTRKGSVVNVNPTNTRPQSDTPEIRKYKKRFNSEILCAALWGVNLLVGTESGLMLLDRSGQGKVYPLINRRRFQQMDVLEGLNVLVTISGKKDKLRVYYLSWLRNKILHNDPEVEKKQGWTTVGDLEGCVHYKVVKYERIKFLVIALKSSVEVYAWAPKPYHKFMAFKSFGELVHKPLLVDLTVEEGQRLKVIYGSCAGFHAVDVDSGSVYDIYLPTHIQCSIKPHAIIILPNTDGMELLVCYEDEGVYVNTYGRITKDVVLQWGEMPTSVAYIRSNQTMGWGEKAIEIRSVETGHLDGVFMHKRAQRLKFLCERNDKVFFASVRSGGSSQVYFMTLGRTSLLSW
Experimental: as §1, §2

NEK2 = target: T2, NEK2 (Homo sapiens, UniProt P51955); assay: Nanosyn in vitro kinase profiling: NEK2; format: biochemical; conditions: for inhibition at 1 µM: compound at 1 μM
T2 sequence (P51955 1-445): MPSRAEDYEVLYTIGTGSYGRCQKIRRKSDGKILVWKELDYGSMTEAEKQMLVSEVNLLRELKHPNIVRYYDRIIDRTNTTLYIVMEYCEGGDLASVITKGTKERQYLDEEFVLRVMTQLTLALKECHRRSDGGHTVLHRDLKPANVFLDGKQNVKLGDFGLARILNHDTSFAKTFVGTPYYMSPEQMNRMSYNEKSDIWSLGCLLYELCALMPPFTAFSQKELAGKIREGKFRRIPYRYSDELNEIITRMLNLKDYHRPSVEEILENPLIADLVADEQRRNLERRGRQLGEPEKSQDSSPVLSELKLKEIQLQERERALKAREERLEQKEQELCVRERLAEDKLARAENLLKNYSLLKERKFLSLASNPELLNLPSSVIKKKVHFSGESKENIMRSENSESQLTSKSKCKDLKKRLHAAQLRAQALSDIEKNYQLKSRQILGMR
Experimental: as §1, §2

DYRK1A = DYRK1A (Homo sapiens, UniProt Q13627); assay: Nanosyn in vitro kinase profiling: DYRK1A; format: biochemical; conditions: for inhibition at 1 µM: compound at 1 μM
Experimental: as §1, §2

IGF1R = IGF1R (Homo sapiens, UniProt P08069); assay: Nanosyn in vitro kinase profiling: IGF1R; format: biochemical; conditions: for inhibition at 1 µM: compound at 1 μM
Sequence of IGF1R (P08069 31-1367): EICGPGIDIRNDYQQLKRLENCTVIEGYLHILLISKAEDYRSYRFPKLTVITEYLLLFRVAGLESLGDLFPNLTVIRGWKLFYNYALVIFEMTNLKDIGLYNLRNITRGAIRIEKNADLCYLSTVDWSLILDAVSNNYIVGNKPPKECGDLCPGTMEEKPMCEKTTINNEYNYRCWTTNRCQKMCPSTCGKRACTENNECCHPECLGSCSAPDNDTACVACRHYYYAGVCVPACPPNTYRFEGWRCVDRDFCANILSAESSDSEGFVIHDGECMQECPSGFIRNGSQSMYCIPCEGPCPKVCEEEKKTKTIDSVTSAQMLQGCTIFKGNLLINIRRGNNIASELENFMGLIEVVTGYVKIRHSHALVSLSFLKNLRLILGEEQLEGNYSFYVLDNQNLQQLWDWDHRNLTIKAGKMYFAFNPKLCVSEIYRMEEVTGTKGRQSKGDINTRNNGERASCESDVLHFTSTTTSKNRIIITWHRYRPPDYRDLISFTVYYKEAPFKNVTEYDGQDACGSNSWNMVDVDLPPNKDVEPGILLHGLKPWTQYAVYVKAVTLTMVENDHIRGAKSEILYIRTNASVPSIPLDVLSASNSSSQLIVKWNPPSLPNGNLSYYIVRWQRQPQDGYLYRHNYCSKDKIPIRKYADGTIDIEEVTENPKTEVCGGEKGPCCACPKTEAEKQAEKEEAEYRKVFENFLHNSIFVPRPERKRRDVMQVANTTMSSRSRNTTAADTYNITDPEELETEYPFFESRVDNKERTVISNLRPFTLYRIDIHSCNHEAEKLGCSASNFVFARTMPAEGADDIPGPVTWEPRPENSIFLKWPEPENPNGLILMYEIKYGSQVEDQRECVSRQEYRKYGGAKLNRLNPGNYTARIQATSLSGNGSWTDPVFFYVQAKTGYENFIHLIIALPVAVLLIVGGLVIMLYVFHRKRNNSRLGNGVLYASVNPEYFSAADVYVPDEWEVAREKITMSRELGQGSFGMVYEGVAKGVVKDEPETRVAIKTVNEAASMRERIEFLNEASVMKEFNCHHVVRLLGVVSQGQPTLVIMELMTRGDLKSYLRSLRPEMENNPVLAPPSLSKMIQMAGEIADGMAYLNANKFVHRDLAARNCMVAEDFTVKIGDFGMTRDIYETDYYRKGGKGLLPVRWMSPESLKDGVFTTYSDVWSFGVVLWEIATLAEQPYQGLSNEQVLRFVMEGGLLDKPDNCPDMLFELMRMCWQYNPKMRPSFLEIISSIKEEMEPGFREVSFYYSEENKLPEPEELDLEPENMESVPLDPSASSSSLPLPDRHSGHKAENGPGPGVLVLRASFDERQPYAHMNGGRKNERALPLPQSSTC
Experimental: as §1, §2

[1] = system: HER2/HER3 heterodimer signaling in MCF-7 cells; assay: HER2/HER3 signaling in MCF-7 cells, pre-treat vs simultaneous NRG addition; format: cell-based
Experimental: FIGS. 2A-2D. […] FIG. 2B: NRG rescues the 72 h proliferation of CW-2 cells, which contain an activating mutation in HER3 (E928G), from HER2 inhibitors (mean±SD, n=3).
FIG. 17. MCF-7 cells were serum starved for 24 h and then either treated with compound 3 for 15 min followed by a 15 min NRG stimulation (15 min pre-treat), or compound 3 and NRG were added simultaneously for 15 min (simultaneous addition).

FAK = FAK (Homo sapiens, UniProt Q05397); assay: Nanosyn in vitro kinase profiling: FAK; format: biochemical; conditions: compound at 1 μM
[2] = system: 2YF/3wt + IL-3 Ba/F3 cells; assay: Ba/F3 proliferation assay, 2YF/3wt + IL-3; format: cell-based; conditions: Mus musculus, BaF3; Table 4; ± S.D., n = 3; 48 h Cell Titer Glo
Experimental: To validate the screen and test the effectiveness of counter-screening with either the same 2YF/3wt Ba/F3 cell line or the parental Ba/F3's in the presence of IL-3 to remove cytotoxic primary hits, we first tested a panel of kinase inhibitors with established mechanisms of action.
Proliferation Assays. For adherent cell lines, cells were plated onto opaque white 96 well plates (Greiner cat #655083) and allowed to adhere overnight. The following day media was changed to fresh media that contained either DMSO or the indicated concentration of drug plus NRG (50 ng/mL final concentration) as indicated. Plates were incubated at 37° C. for 72 h and proliferation was read out using Cell Titer Glo (Promega) according to the manufacturer's protocol. For Ba/F3 cell proliferation, cells, drug dilution, and any necessary growth factors (10 ng/mL IL-3 or 6.25 ng/mL NRG) were combined in a well of a 96 well plate. Plates were incubated at 37° C. for 48 h and proliferation was read out using Cell Titer Glo according to the manufacturer's protocol. For all normalized assays, proliferation was normalized to the DMSO control condition. All graphs were plotted in GraphPad Prism 6 and fit with a non-linear regression of the log(inhibitor) vs response with a variable slope where shown. All graphs are averages (+/−standard deviation) of biological triplicates each performed in technical triplicate unless otherwise noted. If only one biological replicate was performed standard deviations were derived from the technical replicates.

Sequence of P70S6K1 (P23443 whole entry, species assumed): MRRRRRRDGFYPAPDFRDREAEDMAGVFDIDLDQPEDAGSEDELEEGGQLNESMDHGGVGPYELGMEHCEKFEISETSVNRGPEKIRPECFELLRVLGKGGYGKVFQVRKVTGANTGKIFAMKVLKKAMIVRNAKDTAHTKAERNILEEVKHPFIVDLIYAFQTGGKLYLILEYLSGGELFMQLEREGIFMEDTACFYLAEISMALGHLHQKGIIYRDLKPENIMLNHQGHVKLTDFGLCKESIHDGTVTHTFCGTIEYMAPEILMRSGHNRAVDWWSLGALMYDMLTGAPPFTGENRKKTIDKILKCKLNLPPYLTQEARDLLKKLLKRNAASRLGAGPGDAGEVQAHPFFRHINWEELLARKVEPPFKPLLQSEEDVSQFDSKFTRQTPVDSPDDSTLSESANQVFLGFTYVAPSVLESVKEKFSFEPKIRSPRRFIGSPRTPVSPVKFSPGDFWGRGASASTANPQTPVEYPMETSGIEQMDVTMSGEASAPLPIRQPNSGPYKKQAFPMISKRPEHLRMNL

inhibition at 0.1 µM (P70S6K1; compound at 100 nM) [%]	inhibition at 1 µM (P70S6K1; compound at 1 μM) [%]	inhibition at 0.1 µM (PRKD2; compound at 100 nM) [%]	inhibition at 1 µM (PRKD2) [%]	inhibition at 0.1 µM (PDGFR-ALPHA; compound at 100 nM) [%]	inhibition at 1 µM (PDGFR-ALPHA) [%]	inhibition at 0.1 µM (JNK2; compound at 100 nM) [%]	inhibition at 1 µM (JNK2) [%]	inhibition at 0.1 µM (MAP4K4; compound at 100 nM) [%]	inhibition at 1 µM (MAP4K4) [%]	inhibition at 0.1 µM (NEK2; compound at 100 nM) [%]	inhibition at 1 µM (NEK2) [%]	inhibition at 0.1 µM (DYRK1A; compound at 100 nM) [%]	inhibition at 1 µM (DYRK1A) [%]	inhibition at 0.1 µM (IGF1R; compound at 100 nM) [%]	inhibition at 1 µM (IGF1R) [%]	inhibition at 1 µM (FAK) [%]	SMILES	shift in ability to inhibit signaling +/- pre-incubation ([1]; MCF-7, 15 min pre-treat vs simultaneous NRG)	IC50 [2] [µM]	efficacy on signaling, 15 min pre-treat vs simultaneous addition with NRG ([1]; MCF-7, serum starved 24 h)
8.88	38.4	5.46	26.6	11.8	52.5	1.07	6.62	36.5	78.7	1.53	2.98	5	16.7	13.3	53.3	–	COc1ccc(-c2ccco2)cc1Nc1ncnc2[nH]nc(-c3ccco3)c12 [compound 2, 3-(furan-2-yl)-N-(5-(furan-2-yl)-2-methoxyphenyl)-1H-pyrazolo[3,4-d]pyrimidin-4-amine]	–	–	–
–	–	–	28	–	66	–	7	–	100	–	-9	–	41	–	46	-10	COc1ccc(-c2ccoc2)cc1Nc1ncnc2[nH]cc(-c3cc[nH]n3)c12 [compound 3, N-(5-(furan-3-yl)-2-methoxyphenyl)-5-(1H-pyrazol-3-yl)-7H-pyrrolo[2,3-d]pyrimidin-4-amine]	little to no shift	2.54 ± 0.217	–
–	–	–	–	–	–	–	–	–	–	–	–	–	–	–	–	–	CS(=O)(=O)CCNCc1ccc(-c2ccc3ncnc(Nc4ccc(OCc5cccc(F)c5)c(Cl)c4)c3c2)o1 [lapatinib]	–	> 3.33	reduced efficacy of lapatinib when simultaneously added with NRG
